Drawing on patent US8586582B2, “PI3K/mTOR kinase inhibitors” (Xcovery Holding Company, LLC, priority 2008, dated 2013), this text covers IC50 for two compounds.

The target in the assay is T1, mTOR kinase (Homo sapiens, UniProt P42345).
T1 construct: purchased Invitrogen Corp. (Madison, Wis., USA)
Description: Z'-LYTE biochemical assay for mTOR (Invitrogen). As to the method:
The Z′-LYTE® biochemical assay for mTOR
The mTOR kinase activity was assessed using the Z′-LYTE® biochemical assay of Invitrogen Corp. (Madison, Wis., USA).

A value given as a limit tells only on which side of the number the result lay.

T1 sequence (P42345 1360-2549 limits assumed): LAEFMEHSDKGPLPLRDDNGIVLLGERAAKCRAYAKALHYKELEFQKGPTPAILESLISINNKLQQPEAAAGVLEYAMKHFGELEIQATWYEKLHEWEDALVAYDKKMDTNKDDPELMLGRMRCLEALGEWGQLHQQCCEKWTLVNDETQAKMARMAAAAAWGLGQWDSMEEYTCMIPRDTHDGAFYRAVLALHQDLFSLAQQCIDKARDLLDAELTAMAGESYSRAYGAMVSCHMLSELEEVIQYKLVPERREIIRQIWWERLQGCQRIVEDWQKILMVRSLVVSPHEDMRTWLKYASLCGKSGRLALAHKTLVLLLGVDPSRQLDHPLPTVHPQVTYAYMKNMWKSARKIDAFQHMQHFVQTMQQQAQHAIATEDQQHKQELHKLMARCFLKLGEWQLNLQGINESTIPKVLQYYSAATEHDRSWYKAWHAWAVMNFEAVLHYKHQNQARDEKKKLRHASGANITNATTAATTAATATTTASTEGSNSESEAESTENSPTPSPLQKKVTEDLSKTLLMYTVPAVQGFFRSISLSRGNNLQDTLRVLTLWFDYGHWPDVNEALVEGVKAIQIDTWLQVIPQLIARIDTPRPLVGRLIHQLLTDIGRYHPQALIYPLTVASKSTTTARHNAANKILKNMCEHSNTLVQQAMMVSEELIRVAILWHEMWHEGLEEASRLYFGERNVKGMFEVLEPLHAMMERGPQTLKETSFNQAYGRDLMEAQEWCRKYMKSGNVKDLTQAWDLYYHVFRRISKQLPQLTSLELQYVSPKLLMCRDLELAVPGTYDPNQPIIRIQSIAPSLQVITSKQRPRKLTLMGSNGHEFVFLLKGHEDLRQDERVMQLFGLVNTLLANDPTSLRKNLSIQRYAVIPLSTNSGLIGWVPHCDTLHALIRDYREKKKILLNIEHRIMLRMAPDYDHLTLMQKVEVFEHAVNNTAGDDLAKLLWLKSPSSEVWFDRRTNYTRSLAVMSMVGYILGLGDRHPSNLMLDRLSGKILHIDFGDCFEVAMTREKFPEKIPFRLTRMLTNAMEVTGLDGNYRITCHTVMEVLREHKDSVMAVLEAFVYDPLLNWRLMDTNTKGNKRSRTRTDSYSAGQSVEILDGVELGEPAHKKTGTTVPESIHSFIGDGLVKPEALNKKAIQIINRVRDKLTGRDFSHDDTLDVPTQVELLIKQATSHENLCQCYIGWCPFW

For the compound `Nc1ncc(-c2nc(N3CCOCC3)nc3c2cnn3C2CCOCC2)cn1` [Example 1, 5-(1-(2H-3,4,5,6-tetrahydropyran-4-yl)-6-morpholin-4-ylpyrazolo[4,5-e]pyrimidin-4-yl)pyrimidine-2-ylamine], the IC50 (as a rule, the point on the concentration scale where inhibition reaches its midpoint) was less than 1 µM. The result for `CN1CCN(C(=O)N2CCC(n3ncc4c(-c5cnc(N)nc5)nc(N5CCOCC5)nc43)CC2)CC1` [Example 4, 4-[4-(2-aminopyrimidin-5-yl)-6-morpholin-4-ylpyrazolo[5,4-d]pyrimidinyl]piperidyl 4-methylpiperazinyl ketone] reads less than 1 µM.
